Reference: patent US8673617B2, “Culture medium for Haemophilus influenzae type B” (Sanofi Pasteur SA, priority 2007, dated 2014)

Test system: Haemophilus influenzae serotype b
Experiment: PRP production in liquid wheat peptone-based culture medium as a function of heme source (sandwich ELISA on supernatant)
Format: cell-based
Conditions: for Mean PRP / PRP in mg/l Assay 1 / PRP in mg/l Assay 2: wheat medium, 16 h
Procedure: The production of PRP obtained after 16 hours of bacterial culture in liquid plant peptones-based culture media in which the heme source was either hemin or protoporphyrin IX of animal origin (porcine protoporphyrin) in disodium salt form, or protoporphyrin IX of purely synthetic origin in disodium salt form was compared. The hemin and protoporphyrin IX concentration ranges in the culture media varied from about 0.010 g/l to about 2 g/l so as to obtain PRP titration curves as a function of the heme source tested and as a function of the plant peptone tested. An enzymatic hydrolysate of garden pea peptone provided by Kerry (Hy pea 7404) and a wheat peptone provided by Organotechnie (19559) were tested at a concentration in the culture medium equivalent to 0.87 g/l of protein nitrogen. By reference to the current methods for the production of PRP, PRP production was also measured in a medium that contains a peptone of animal origin, such as casein hydrolysate (HAC) provided by Solabia at a concentration in the medium equivalent to 0.87 g/l with increased concentrations of hemin (see table III).
1.1) Preparation of the Media • 1.1.1. Stock solution of β-NAD (Fluka) at 1 g/l in water which was ultrafiltered and then sterilized by filtration through 0.22 μm. • 1.1.2. Stock solution of hemin (Sigma) at 0.25 g/l in water was ultrafiltered, comprising 5 ml of 25% aqueous ammonia (Cooper) to aid dissolution. The stock solution was sterilized by filtration through 0.22 μm. • 1.1.3. Stock solution of porcine protoporphyrin IX (Sigma) at 0.25 g/l in ultrafiltered water comprising 5 ml of 25% aqueous ammonia (Cooper) in order to facilitate the dissolution. The stock solution was sterilized by filtration through 0.22 μm. • 1.1.4. Stock solution of synthetic protoporphyrin IX at 0.25 g/l in ultrafiltered water comprising 5 ml of 25% aqueous ammonia (Cooper) in order to facilitate the dissolution. The stock solution was also heated to 80° C. in a water bath with stirring in order to complete the dissolution before being sterilized by filtration through 0.22 μm. The protoporphyrin IX, in disodium salt form, was synthesized according to the method described in the U.S. provisional patent application Ser. No. 12/057,574, filed Mar. 28, 2008 and application Ser. No. 60/943,735 and filed on Jun. 13, 2007 using the steps which are described in scheme 2. • The stock solutions of hemin and protoporphyrin IX were checked for their respective contents of active compounds after sterilizing filtration. The protoporphyrin IX and hemin contents were determined by Reversed Phase High Performance Liquid Chromatography (RP-HPLC). The chromatographic chain comprises a twin head pump module allowing the formation of a binary gradient, a programmable automatic injector, a diode array UV detector and a chromatographic column of the type Synergi 4 μm, Polar RP-80A (150×4.6) mm, ref 00F-4336-E0, Phenomenex. • The stock solution of hemin (Sigma) to be checked after filtration was diluted ⅓ in distilled water. The stock solutions of porcine protoporphyrin IX (Sigma) and of synthetic protoporphyrin IX to be checked after filtration were diluted ¼ in distilled water. In parallel, a calibration series was prepared in ammoniated water ranging from 0.025 g/l to 0.125 g/l of protoporphyrin IX from porcine protoporphyrin IX from Sigma (ref: 25838-5) and a calibration series ranging from 0.050 g/l to 0.150 g/l of hemin from hemin from Sigma (ref: H5533-256). The samples to be checked and the various solutions of the calibration series were injected in a volume of 20 μl (for the hemin solutions and samples) and of 5 μl (for the protoporphyrin IX solutions and samples). The initial mobile phase consisting of a volume for volume mixture of acetonitrile and 10 mM KH2PO4 pH 2.5 is set at a flow rate of 1 ml/min. A discontinuous gradient was then produced from this mobile phase in order to separate the molecules of interest which are detected at a wavelength of 400 nm. […]

## C=CC1=C(C)c2cc3[n-]c(cc4nc(cc5[n-]c(cc1n2)c(C)c5CCC(=O)O)C(CCC(=O)O)=C4C)c(C)c3C=C.[Cl-].[Fe+3] [Hemin, hemin, reference compound]
Hemin 11.8 μg/l
  Mean PRP: 5.3 mg/L
  PRP in mg/l Assay 1: 4.98 mg/L
  PRP in mg/l Assay 2: 5.61 mg/L
Hemin 59 μg/l
  Mean PRP: 13.35 mg/L
  PRP in mg/l Assay 1: 13 mg/L
  PRP in mg/l Assay 2: 13.7 mg/L
Hemin 118 μg/l
  Mean PRP: 17.60 mg/L
  PRP in mg/l Assay 1: 17.7 mg/L
  PRP in mg/l Assay 2: 17.5 mg/L
Hemin 295 μg/l
  Mean PRP: 32.75 mg/L
  PRP in mg/l Assay 1: 35.3 mg/L
  PRP in mg/l Assay 2: 30.2 mg/L
Hemin 590 μg/l
  Mean PRP: 72.4 mg/L
  PRP in mg/l Assay 1: 71.4 mg/L
  PRP in mg/l Assay 2: 73.4 mg/L
Hemin 1180 μg/l
  Mean PRP: 291.5 mg/L
  PRP in mg/l Assay 1: 327 mg/L
  PRP in mg/l Assay 2: 256 mg/L
Hemin 1770 μg/l
  Mean PRP: 466.5 mg/L
  PRP in mg/l Assay 1: 487 mg/L
  PRP in mg/l Assay 2: 446 mg/L
Hemin 2360 μg/l
  Mean PRP: 495.5 mg/L
  PRP in mg/l Assay 1: 487 mg/L
  PRP in mg/l Assay 2: 504 mg/L
Wheat peptone medium (FIG. 2)
  heme source concentration required for optimum / equivalent PRP production: about 1500 μg/l
